Consider 21 molecules from PubChem BioAssay (NCI).

Several values for one entry are separate records, joined by “and”; a condition that tells them apart may be missing. Identical values can stand only once.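 Exposure lasted 48 hours, with cells grown in 96-well plates and compounds tested at five concentrations. GI50 marks 50% less growth. TGI: concentration producing complete growth inhibition.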

What all share (test): NCI-60 cell line screen, 48 h
Experiment [1] deals with RXF 393 renal.
In experiment [2] the test system is CAKI-1 renal.
In experiment [3] the test system is OVCAR-3 ovarian.
The subject of experiment [4] is SK-MEL-5 melanoma.
Experiment [5] relates to RPMI-8226 leukemia.
The subject of experiment [6] is KM12 colon.
The test system of experiment [7] is UACC-257 melanoma.
Experiment [8] has as its system A549 NSCLC.
Experiment [9] has as its system SF-295 CNS.
Experiment [10] relates to IGROV1 ovarian.
Experiment [11] has as its system OVCAR-8 ovarian.
The subject of experiment [12] is HOP-92 NSCLC.
The subject of experiment [13] is NCI-H23 lung.
Experiment [14] has as its system PC-3 prostate.
In experiment [15] the test system is SR leukemia.

`CC(=O)Oc1c(OC(C)=O)c(-c2ccc(O)c(O)c2)c(O)c(O)c1-c1ccc(O)cc1`: the GI50 was over 100 µM in [1], 59.5 µM in [3], 20 µM in [5] and 60.8 µM in [12]. The TGI in experiment [1], in experiment [2], in [3], in experiment [4], in experiment [5] and in [6] was over 100 µM each time. Also, the TGI in experiment [7] is over 100 µM; in experiment [8], over 100 µM; in experiment [9], over 100 µM; in [10], over 100 µM; in [11], over 100 µM; in experiment [12], > 100 µM and 96.6 µM. The molecule further displayed a TGI in [13] of over 100 µM.
For the molecule `N#Cc1c(-c2ccc(Cl)cc2)c(C#N)c(=O)n(NS(=O)(=O)c2ccccc2)c1-c1ccccc1`, the TGI in [1], in experiment [2], in experiment [4], in experiment [14], in experiment [5] and in experiment [7] was over 25 µM throughout. Besides, the TGI in [8], in experiment [9] and in [12] was over 25 µM throughout.
Take `CN1OC(=O)N(C)C1c1ccccc1` (configuration not stated): the TGI in experiment [1], in experiment [3], in experiment [4], in experiment [5], in experiment [6] and in [7] was over 100 µM each time. Moreover, the TGI in [8], in experiment [9], in experiment [10], in experiment [11], in experiment [12] and in experiment [13] was over 100 µM throughout.
Turning to `CC1(C)CCc2c(c(N=Nc3ccccc3)c3ccccc3c2O)O1`, the TGI in experiment [1] was 33.6 µM; in experiment [2] it was 69.1 µM; in experiment [3], 53.1 µM; in experiment [4] it was over 100 µM; in experiment [14], 71.8 µM; in experiment [5], over 100 µM. For the same molecule, the TGI in experiment [6] is over 100 µM; in experiment [7] it was 39.8 µM; in experiment [8], over 100 µM; in [9], 57.3 µM; in experiment [10], over 100 µM; in [11], over 100 µM. The TGI in experiment [12] is 63.9 µM; in [13], over 100 µM.
For `Nc1ccn(C2OC(COP(=O)(O)Oc3ccccc3)C(O)C2O)c(=O)n1` (configuration not stated), the TGI in experiment [1], in experiment [2], in [3], in experiment [4], in [5] and in [6] was over 100 µM each time. Besides, the TGI in experiment [7], in experiment [8], in [9], in experiment [10], in experiment [11] and in [12] was over 100 µM each time. The molecule further gave a TGI in experiment [13] of over 100 µM.
With `COc1cc(CC2c3cc(OC)c(OC)cc3CCN2C)c(Oc2cc3c(cc2OC)-c2c(OC)c(OC)c(OC)c4c2C(C3)N(C)CC4)cc1OC` (configuration not stated), the TGI is 14.9 µM in [1]; 32.1 µM in experiment [2]; 28.2 µM in experiment [3]; 13.4 µM in [4]; over 45.7 µM in experiment [5]; 29.3 µM in experiment [6]. Besides, the TGI in [7] was found to be 13.6 µM; in experiment [8], 30.6 µM; in experiment [9] it was 28.8 µM; in [10], 29.9 µM; in experiment [11], 32 µM; in [12], 20.9 µM. The molecule also came in with a TGI in [13] of 34.9 µM.
For the molecule `N#Cc1c(C#N)c(SSc2c(C#N)c(C#N)c(N)n2-c2ccccc2)n(-c2ccccc2)c1N`, the TGI in experiment [1] is 44.7 µM; in experiment [2], 2.99 µM; in experiment [3] it was 45.2 µM; in experiment [4] it was 31.9 µM; in experiment [14] it was 46.1 µM; in experiment [6], over 63.3 µM. The TGI in experiment [7] is over 69.8 µM; in [8] it was over 57.2 µM; in [9], over 58.6 µM; in [10], over 60.5 µM; in experiment [11], over 100 µM; in [12], 3.71 µM. The molecule also showed a TGI in experiment [13] of over 61 µM.
As to `Nc1ncc(Cc2nc3ccccc3s2)s1`, the TGI in experiment [1], in experiment [2], in [3], in experiment [4], in experiment [14] and in experiment [5] was over 100 µM each time. The TGI in [6], in experiment [7], in experiment [8], in [9], in [10] and in experiment [11] was over 100 µM each time. Moreover, the TGI in experiment [12] was over 100 µM.
Regarding `COCN1C(=O)[C@@H]2CCCN2C(=O)c2cc([N+](=O)[O-])ccc21`, the TGI in [1] was 39.9 µM; in experiment [2] it was over 100 µM; in experiment [4], over 100 µM; in experiment [14] it was over 100 µM; in experiment [6], over 100 µM; in [7] it was over 100 µM. Moreover, the TGI in experiment [8], in experiment [9], in [10], in experiment [11] and in experiment [13] was over 100 µM in each case.
In the case of `Cc1n[nH]c(=O)n1N=C(c1ccccc1)c1ccccc1`, the TGI in [1], in experiment [2], in experiment [3], in [4], in experiment [14] and in experiment [5] was over 100 µM each time. The TGI in experiment [6], in [7], in experiment [8], in [9], in experiment [10] and in experiment [11] was over 100 µM in each case. Further, the TGI in [12] and in experiment [13] was over 100 µM in each case.
For `CC12ON=C(c3ccccc3)N1C=CN1C(c3ccccc3)=NOC12` (configuration not stated), the TGI in experiment [1], in experiment [2], in experiment [3], in [4], in experiment [14] and in experiment [6] was over 100 µM in each case. The TGI in experiment [7], in [8], in [9], in experiment [10], in [11] and in experiment [13] was over 100 µM throughout.
Take `Cc1ccc(/C=N/Nc2ncccn2)s1`: the TGI in experiment [1], in [2], in [3], in [4], in experiment [14] and in experiment [5] was over 100 µM throughout. The TGI in experiment [6], in [7], in [8], in [9], in [10] and in [11] was over 100 µM throughout. The TGI in [12] and in experiment [13] was over 100 µM in each case.
Take `CNC(=O)CN1CC(=O)N(C)C(=O)C1`: the TGI in [1], in [2], in experiment [3], in experiment [4], in experiment [5] and in experiment [6] was over 100 µM in each case. The TGI in experiment [15], in [10], in experiment [12] and in experiment [13] was over 100 µM each time.
Regarding `Fc1ccc(C(OCCN2CCC3CCC(C2)N3Cc2cc3ccccc3[nH]2)c2ccc(F)cc2)cc1` (configuration not stated), the TGI in experiment [1] is 3.12 µM; in experiment [2] it was 5.69 µM; in [3], 3.39 µM; in experiment [4], 3.11 µM; in experiment [14], 3.25 µM; in experiment [5] it was 3.42 µM. The TGI worked out at 3.72 µM in experiment [6]; 3.53 µM in experiment [7]; 4.26 µM in experiment [8]; 3.78 µM in experiment [9]; 2.79 µM in experiment [10]; 3.1 µM in experiment [11]. The TGI came out at 3.62 µM in experiment [12] and 3.05 µM in [13].
As to `COc1ccc2c(c1)c1cc(OC)ccc1n2CCCCOc1ccc(-c2c3ccccc3c(-c3ccc(OCCCCn4c5ccc(OC)cc5c5cc(OC)ccc54)cc3)c3ccccc23)cc1`, the TGI in experiment [2], in experiment [3], in experiment [6], in experiment [8], in experiment [10] and in experiment [11] was over 100 µM in each case. The molecule also registered a TGI in [12] of over 100 µM.
On to `CC(C)(C)/C(O)=C\c1nc2cc(C(F)(F)F)ccc2[nH]c1=O`, for which the TGI in [1], in experiment [2], in experiment [3], in experiment [4], in [14] and in [5] was over 100 µM in each case. Further, the TGI in experiment [6], in [7], in experiment [8], in experiment [9], in experiment [10] and in [11] was over 100 µM each time. The TGI in experiment [12] and in [13] was over 100 µM throughout.
Regarding `O=C(C1OC1c1ccc([N+](=O)[O-])cc1)C12CC3CC(CC(C3)C1)C2` (configuration not stated), the TGI in experiment [1] worked out at 46.4 µM; in experiment [2], 36 µM; in [3], 27 µM; in experiment [4], 29.1 µM; in [14] it was 28.1 µM; in experiment [6] it was 30.1 µM. Moreover, the TGI stood at 30.9 µM in [7]; 52.7 µM in experiment [8]; 30.8 µM in [9]; 34.6 µM in [10]; 38.2 µM in experiment [11]; 40.3 µM in [12]. The same molecule registered a TGI in experiment [13] of 27.2 µM.
For `COc1cc2c(cc1OC)C(Cl)C(c1cc(OC)c(OC)c(OC)c1)=C2Cl` (configuration not stated), the TGI in experiment [2] amounted to 32.5 µM; in experiment [3], 31.9 µM; in [4], 30.5 µM; in experiment [5], 37 µM; in [9], 29.9 µM; in experiment [10] it was 54.7 µM. In addition, the figures for the TGI in experiment [11], in experiment [12] and in [13] were 48.7 µM, 27.9 µM and 51.8 µM, respectively.
As for `C[C@@H]1OC(=O)C[C@H]2CC(=O)N(CCc3cn(S(=O)(=O)C(F)(F)F)c4ccccc34)C[C@@H]21`, the TGI in [1], in experiment [2], in experiment [3], in [4], in experiment [14] and in experiment [5] was over 100 µM throughout. Also, the TGI in experiment [6], in [7], in [8], in [9], in experiment [10] and in [11] was over 100 µM each time. Also, the TGI in [12] and in experiment [13] was over 100 µM each time.
As for `NNC(=O)c1n[nH]nc1SSc1n[nH]nc1C(=O)NN`, the TGI in experiment [1], in experiment [2], in experiment [3], in [4], in experiment [14] and in [6] was over 100 µM throughout. In addition, the TGI in [7], in experiment [8], in experiment [9], in experiment [10], in experiment [11] and in experiment [12] was over 100 µM throughout. Also, the TGI in experiment [13] was over 100 µM.
As for `CN1CCN(c2ccc3[nH]c(C4=C(O)c5nc(CO)n(C)c5C(=O)C4=O)nc3n2)CC1`, the TGI was 91.4 µM in experiment [1]; over 100 µM in [2]; over 100 µM in experiment [3]; over 100 µM in experiment [14]; over 100 µM in [5]; over 100 µM in experiment [6]. In addition, the TGI in experiment [7], in experiment [8], in experiment [9], in experiment [10], in experiment [11] and in experiment [12] was over 100 µM each time. In [13], this molecule had a TGI of over 100 µM.
